Measurements taken from PMC2774619 (Current Chemical Genomics, 2008).
pIC50, pKd: −log10 of the molar value. Where a name gives a salt, the structure may show the parent alone. Peptide text beside a SMILES is read from it.

How the values were obtained:
[1] = biological target: murine M1 muscarinic acetylcholine receptor (Rattus norvegicus, UniProt P08482); assay: cell-based; settings: IC50, IP-One Assay
[2] = biological target: free fatty acid receptor 1 (FFAR1) (Homo sapiens, UniProt O14842)
[3] = biological target: neuropeptide S (NPS) receptor (Homo sapiens, UniProt Q6W5P4); settings: NPSR
NPS receptor = settings: read-out: Kd value of NPS receptor binding; reported previously; cited from earlier work
[4] = biological target: NPS receptor (Homo sapiens) (UniProt Q6W5P4); settings: cited from earlier work
NPS receptor (Homo sapiens), sequence (Q6W5P4 whole entry): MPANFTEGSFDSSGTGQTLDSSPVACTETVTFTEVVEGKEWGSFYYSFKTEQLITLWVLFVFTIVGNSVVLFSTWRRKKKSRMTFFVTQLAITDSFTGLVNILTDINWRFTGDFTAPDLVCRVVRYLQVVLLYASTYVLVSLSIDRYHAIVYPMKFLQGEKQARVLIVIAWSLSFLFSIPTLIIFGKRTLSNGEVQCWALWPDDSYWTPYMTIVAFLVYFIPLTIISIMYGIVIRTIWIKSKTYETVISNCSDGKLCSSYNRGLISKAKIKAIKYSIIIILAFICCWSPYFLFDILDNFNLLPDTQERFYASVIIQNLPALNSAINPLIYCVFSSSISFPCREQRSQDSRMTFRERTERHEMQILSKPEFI

murine M1 muscarinic acetylcholine receptor, sequence (P08482 whole entry): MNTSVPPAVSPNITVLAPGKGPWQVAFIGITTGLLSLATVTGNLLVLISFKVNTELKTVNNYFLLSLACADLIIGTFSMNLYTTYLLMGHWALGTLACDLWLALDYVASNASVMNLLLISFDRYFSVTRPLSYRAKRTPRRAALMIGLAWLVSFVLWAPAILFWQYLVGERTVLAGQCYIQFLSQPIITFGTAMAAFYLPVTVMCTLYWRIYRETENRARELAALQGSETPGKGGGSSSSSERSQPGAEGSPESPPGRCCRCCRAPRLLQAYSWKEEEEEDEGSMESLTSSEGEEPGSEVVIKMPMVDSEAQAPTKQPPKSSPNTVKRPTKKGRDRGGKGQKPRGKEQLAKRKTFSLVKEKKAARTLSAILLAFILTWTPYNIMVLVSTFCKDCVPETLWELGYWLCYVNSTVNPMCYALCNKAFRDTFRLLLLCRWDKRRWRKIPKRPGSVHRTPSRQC
neuropeptide S (NPS) receptor, sequence (Q6W5P4 whole entry): as the sequence (Q6W5P4 whole entry) above
free fatty acid receptor 1 (FFAR1), sequence (O14842 whole entry, species assumed): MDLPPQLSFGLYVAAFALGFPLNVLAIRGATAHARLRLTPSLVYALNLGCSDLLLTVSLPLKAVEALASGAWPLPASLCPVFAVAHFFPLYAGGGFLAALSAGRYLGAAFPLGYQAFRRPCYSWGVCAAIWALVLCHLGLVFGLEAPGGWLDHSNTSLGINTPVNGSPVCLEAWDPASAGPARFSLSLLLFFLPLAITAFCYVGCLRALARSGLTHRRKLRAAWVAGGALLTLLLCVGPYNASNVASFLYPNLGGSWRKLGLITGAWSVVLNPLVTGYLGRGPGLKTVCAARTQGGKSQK
Neuropeptide S, sequence (P0C0P6 68-89): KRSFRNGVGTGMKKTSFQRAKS

Row | Compound | pIC50 [1] | further results
1 | C[N+]1(C)[C@@H]2CC[C@H]1C[C@@H](OC(=O)C(CO)c1ccccc1)C2 (mixture of isomers) [Atropine methyl bromide] | 8.52 | –
2 | O=C(O)CCc1ccc(NCc2cccc(Oc3ccccc3)c2)cc1 [GW9508] | – | Ratio b/a (EC50 IP-One / EC50 calcium) [2]: 1.1
3 | CC(C)[N+](C)(CCOC(=O)C1c2ccccc2Oc2ccccc21)C(C)C [Propantheline bromide] | 9.00 | –
4 | CC(=O)O[C@H]1C[C@@H]2CC[C@@H]3[C@H](CC[C@@]4(C)[C@H]3C[C@H]([N+]3(C)CCCCC3)[C@@H]4OC(C)=O)[C@@]2(C)C[C@@H]1[N+]1(C)CCCCC1 [Pancuronium bromide] | 4.90 | –
5 | CSCC[C@H](NC(=O)CNC(=O)[C@@H](NC(=O)CNC(=O)[C@@H](NC(=O)CNC(=O)[C@H](CC(N)=O)NC(=O)[C@H](CCCNC(=N)N)NC(=O)[C@H](Cc1ccccc1)NC(=O)[C@@H](N)CO)C(C)C)[C@@H](C)O)C(=O)N[C@@H](CCCCN)C(=O)N[C@@H](CCCCN)C(=O)N[C@H](C(=O)N[C@@H](CO)C(=O)N[C@@H](Cc1ccccc1)C(=O)N[C@@H](CCC(N)=O)C(=O)N[C@@H](CCCNC(=N)N)C(=O)N[C@@H](C)C(=O)N[C@@H](CCCCN)C(=O)N[C@@H](CO)C(=O)O)[C@@H](C)O [NPS, neuropeptide S] (H-SFRNGVGTGMKKTSFQRAKS-OH) | – | Ratio b/a (EC50 IP-One / EC50 calcium) [3]: 1.9; pKd (NPS receptor): 9.48
6 | CC[N+](CC)(CC)CCOc1ccc(/C=C/c2ccccc2)cc1 [MG 624] | 6.40 | –
7 | Neuropeptide S (from UniProt P0C0P6) | – | pKd [4]: 9.48
8 | C[N+]1(C)[C@@H]2CC[C@H]1C[C@@H](OC(=O)C(CO)c1ccccc1)C2 (mixture of isomers) [Atropine methyl nitrate] | 9.00 | –
9 | CN1[C@@H]2CC[C@H]1C[C@@H](OC(c1ccccc1)c1ccccc1N)C2 (some centres unmarked) [Aminobenztropine] | 8.52 | –
10 | Cc1scc2c1N(C(=O)CN1CCN(C)CC1)c1ccccc1NC2=O [Telenzepine dihydrochloride] | 7.60 | –
